The record followed here is patent US20140357620A1, “METHOD FOR ADMINISTRATION OF A GAMMA SECRETASE INHIBITOR” (Hoffmann-La Roche Inc., priority 2011, published 2014).

Where two headings read alike, the source gives them in different places.

A short description of data set [1]: ongoing first phase 1 trial of Compound A (pharmacokinetics). On the set-up: species or system patients. As to conditions: human, in vivo, oral. The text has this:
This schedule (C) includes 11 dosing days in a 3-week cycle.

On the set-up of data set [2]: species or system patients. The settings on record: human, in vivo. The method, then:
If deemed safe, then dose escalation to dose intensities at and above that given in the 3-4 schedule at 270 mg/day will be performed. For safety reasons, the first cohorts of patients enrolled in schedules C, D, E and F will be treated with lower doses (dose level 1: 14% to 37% of dose intensity of 3-4 schedule at 270 mg). Then in the subsequent cohorts, the dose will be escalated by 50%-100%.

Turning to `CC(C)(C(=O)NCC(F)(F)C(F)(F)F)C(=O)N[C@@H]1C(=O)Nc2ccccc2-c2ccccc21` [Compound A, 2,2-dimethyl-N-((S)-6-oxo-6,7-dihydro-5H-dibenzo[b,d]azepin-7-yl)-N′-(2,2,3,3,3-pentafluoro-propyl)-malonamide], the half-life (as a rule, the time needed for the level to fall by half in the phase considered) in data set [1] (mean, read-out: mean terminal half-life (converted)) is 2530 min; in data set [1] (range, read-out: terminal half-life (range)), 600 to 5580 min. Also, the “highest safe dose tested so far” value in data set [2] was determined as 270 mg/day.
